Results on 36 molecules are retold here after patent publication US12129237B2, “Substituted diaminocarboxamide and diaminocarbonitrile pyrimidines, compositions thereof, and methods of treatment therewith” (SIGNAL PHARMACEUTICALS, LLC, priority 2011, dated 2024).

The experiment has as its target T1, JNK1 (Homo sapiens, UniProt P45983).
T1 construct: purchased Carna Biosciences
Description: JNK1 biochemical assays (one or more of: time resolved fluorescence, Z'-LYTE Cascade, radioactive).

Where [1] appears, read: Table 3, JNK1 IC50 activity level, read-out: Act. Level.
The mark [2] stands for this setting: Table 2, JNK1 IC50 activity level, read-out: Act. Level.
[3] abbreviates: one or more of the JNK1 biochemical assays, read-out: Act. Level (JNK1 IC50 activity level).
[4] abbreviates: tested in one or more of the JNK1 biochemical assays, read-out: Act. Level (JNK1 biochemical assay IC50 activity level).

Like-named read-outs stand apart in the source and are kept apart here. Where only a bound is given, the exact number is not on record here.

T1 sequence (P45983 whole entry): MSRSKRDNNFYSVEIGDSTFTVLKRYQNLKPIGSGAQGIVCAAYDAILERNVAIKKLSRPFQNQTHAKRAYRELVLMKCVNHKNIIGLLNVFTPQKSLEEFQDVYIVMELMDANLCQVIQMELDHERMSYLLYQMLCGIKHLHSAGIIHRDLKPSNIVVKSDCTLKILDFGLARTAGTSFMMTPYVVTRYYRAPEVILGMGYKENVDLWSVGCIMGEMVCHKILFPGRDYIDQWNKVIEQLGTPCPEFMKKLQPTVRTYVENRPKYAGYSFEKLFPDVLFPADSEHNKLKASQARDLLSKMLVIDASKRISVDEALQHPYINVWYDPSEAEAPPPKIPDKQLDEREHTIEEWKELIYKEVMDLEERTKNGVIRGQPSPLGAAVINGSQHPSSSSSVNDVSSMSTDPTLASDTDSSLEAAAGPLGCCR

On to `CCO[C@H]1CC[C@H](Nc2ncc(C#N)c(N[C@@H]3CC[C@@H](C)[C@H](O)C3)n2)CC1` [Example C-41, 2-((1r,4R)-4-ethoxycyclohexylamino)-4-((1R,3R,4R)-3-hydroxy-4-methylcyclohexylamino) pyrimidine-5-carbonitrile], for which the IC50 under setting [1] was less than 200 nM.
As to `NC(=O)c1cnc(NCC2CC2)nc1Nc1ccccc1` [Example B-35, 2-(cyclopropylmethylamino)-4-(phenylamino)pyrimidine-5-carboxamide], under setting [2], the IC50 fell in the range of 200 to 800 nM.
For `N#Cc1cnc(N[C@H]2CC[C@H](OCC(F)(F)F)CC2)nc1N[C@@H]1CCCC[C@H](O)C1` [Example C-30, 4-((1R,3S)-3-hydroxycycloheptylamino)-2-((1r,4R)-4-(2,2,2-trifluoroethoxy)cyclohexylamino) pyrimidine-5-carbonitril], the IC50 under setting [1] is less than 200 nM.
For the molecule `CCO[C@H]1CC[C@H](Nc2ncc(C(N)=O)c(NC(C)(C)C(C)(C)C)n2)CC1` [Example 332, 2-((1r,4r)-4-ethoxycyclohexylamino)-4-(2,3,3-trimethylbutan-2-ylamino)pyrimidine-5-carboxamide], the IC50 under setting [3] is less than 200 nM.
For the molecule `NC(=O)c1cnc(NC2CCOCC2)nc1Nc1ccccc1` [Example B-11, 4-(phenylamino)-2-(tetrahydro-2H-pyran-4-ylamino)pyrimidine-5-carboxamide], under setting [2], the IC50 is less than 200 nM.
Take `CC1CCC1Nc1nc(N[C@H]2CC[C@H](O)CC2)ncc1C(N)=O` (stereo partly drawn) [Example 244, 2-((1r,4r)-4-hydroxycyclohexylamino)-4-(2-methylcyclobutylamino)pyrimidine-5-carboxamide]: the IC50 under setting [3] is less than 200 nM.
Consider `NC(=O)c1cnc(N[C@H]2CCCc3ccccc32)nc1N[C@@H]1CCC[C@H](O)C1` [Example B-75, 4-((1R,3S)-3-hydroxycyclohexylamino)-2-((S)-1,2,3,4-tetrahydronaphthalen-1-ylamino)pyrimidine-5-carboxamid], for which the IC50 under setting [2] was less than 200 nM.
On to `CO[C@H]1CC[C@H](Nc2ncc(C(N)=O)c(NC3COCC(O)C3)n2)CC1` (stereo partly drawn) [Example A-13, 4-(5-hydroxytetrahydro-2H-pyran-3-ylamino)-2-((1r,4r)-4-methoxycyclohexylamino)pyrimidine-5-carboxamide], for which the IC50 under setting [4] was less than 200 nM.
`CC1CCC1Nc1nc(N[C@H]2CC[C@H](OCC(F)(F)F)CC2)ncc1C(N)=O` (stereo partly drawn) [Example 257, 4-(2-methylcyclobutylamino)-2-((1r,4r)-4-(2,2,2-trifluoroethoxy)cyclohexylamino)pyrimidine-5-carboxamide]: the IC50 under setting [3] is less than 200 nM.
Regarding `CC1(Nc2ncc(C(N)=O)c(NC3CCC(C)(C)C(O)C3)n2)CC1` (stereo not drawn) [Example 430, 4-(3-hydroxy-4,4-dimethylcyclohexylamino)-2-(1-methylcyclopropylamino)pyrimidine-5-carboxamide], the IC50 under setting [3] is less than 200 nM.
For `CO[C@H]1CC[C@H](Nc2ncc(C#N)c(NC(C)C)n2)CC1` [Example C-17, 4-(isopropylamino)-2-((1r,4r)-4-methoxycyclohexylamino) pyrimidine-5-carbonitrile], the IC50 under setting [1] is 800 to 1000 nM.
For `COc1ccc(Nc2ncc(C(N)=O)c(Nc3ccccc3)n2)cc1F` [Example B-27, 2-(3-fluoro-4-methoxyphenylamino)-4-(phenylamino)pyrimidine-5-carboxamide], the IC50 under setting [2] is less than 200 nM.
Regarding `CCC1(Nc2nc(N[C@H]3CC[C@H](OC)CC3)ncc2C(N)=O)CCC1` [Example 361, 4-(1-ethylcyclobutylamino)-2-((1r,4r)-4-methoxycyclohexylamino)pyrimidine-5-carboxamide], the IC50 under setting [3] is less than 200 nM.
As for `NC(=O)c1cnc(NC2CCOCC2)nc1N[C@H]1CC[C@@H](C(=O)N2CCCC2)CC1` [Example A-112, 4-((1s,4s)-4-(pyrrolidine-1-carbonyl)cyclohexylamino)-2-(tetrahydro-2H-pyran-4-ylamino)pyrimidine-5-carboxamide], the IC50 under setting [4] fell in the range of 800 to 1000 nM.
Take `CC[C@@H](C)Nc1ncc(C(N)=O)c(N[C@@H]2CCC[C@H](O)C2)n1` [Example 497, 2-(sec-butylamino)-4-((1R,3S)-3-hydroxycyclohexylamino)pyrimidine-5-carboxamide]: the IC50 under setting [3] is less than 200 nM.
The same measure, in the same setting: next, `CCO[C@H]1CC[C@H](Nc2ncc(C(N)=O)c(N[C@@H](C)C(C)C)n2)CC1` [Example 282, 2-((1r,4S)-4-ethoxycyclohexylamino)-4-((S)-3-methylbutan-2-ylamino)pyrimidine-5-carboxamide]: less than 200 nM.
As to `COc1cccc(Nc2ncc(C(N)=O)c(Nc3ccccc3)n2)c1` [Example B-25, 2-(3-methoxyphenylamino)-4-(phenylamino)pyrimidine-5-carboxamide], the IC50 under setting [2] was less than 200 nM.
Regarding `CC(C)(Nc1nc(N[C@H]2CCC[C@@H](O)C2)ncc1C(N)=O)C1CC1` [Example 457, 4-(2-cyclopropylpropan-2-ylamino)-2-((1S,3R)-3-hydroxycyclohexylamino)pyrimidine-5-carboxamide], the IC50 under setting [3] was less than 200 nM.
For the molecule `NC[C@H]1CC[C@@H](Nc2nc(NC3CCOCC3)ncc2C(N)=O)CC1` [Example A-108, 4-((1s,4s)-4-(aminomethyl)cyclohexylamino)-2-(tetrahydro-2H-pyran-4-ylamino)pyrimidine-5-carboxamide], the IC50 under setting [4] was less than 200 nM.
With `CC(C)Nc1nc(N[C@H]2CC[C@H](CO)CC2)ncc1C(N)=O` [Example A-12, 2-((1r,4r)-4-(hydroxymethyl)cyclohexylamino)-4-(isopropylamino)pyrimidine-5-carboxamide], under setting [4], the IC50 was less than 200 nM.
As for `NC(=O)c1cnc(NC2CCOCC2)nc1N[C@@H]1CCC[C@H]1CO` [Example 328, 4-((1R,2R)-2-(hydroxymethyl)cyclopentylamino)-2-(tetrahydro-2H-pyran-4-ylamino)pyrimidine-5-carboxamide], under setting [3], the IC50 is less than 200 nM.
Same read-out and setting: next, `CC(C)(C)Nc1nc(N[C@@H]2CCC[C@@H](O)C2)ncc1C(N)=O` [Example 299, 4-(tert-butylamino)-2-((1R,3R)-3-hydroxycyclohexylamino)pyrimidine-5-carboxamide]: less than 200 nM.
Same read-out and setting: next, `NC(=O)c1cnc(N[C@H]2CC[C@H](OC(F)F)CC2)nc1N[C@@H]1CCC[C@@H]1CO` [Example 268, 2-((1r,4R)-4-(difluoromethoxy)cyclohexylamino)-4-((1R,2S)-2-(hydroxymethyl)cyclopentylamino)pyrimidine-5-carboxamide]: less than 200 nM; `CC[C@@H](C)Nc1ncc(C(N)=O)c(N[C@@H]2CC[C@@H](C)[C@H](O)C2)n1` [Example 383, 2-(sec-butylamino)-4-((1R,3R,4R)-3-hydroxy-4-methylcyclohexylamino)pyrimidine-5-carboxamide]: less than 200 nM.
On to `CC(C)(C)Nc1nc(N[C@H]2CCC[C@@H](O)C2)ncc1C(N)=O` [Example 306, 4-(tert-butylamino)-2-((1S,3R)-3-hydroxycyclohexylamino)pyrimidine-5-carboxamide], for which the IC50 under setting [3] is less than 200 nM.
Same read-out and setting: under `CC(C)CC(C)(C)Nc1nc(N[C@H]2CC[C@H](O)CC2)ncc1C(N)=O` [Example 369, 4-(2,4-dimethylpentan-2-ylamino)-2-((1r,4r)-4-hydroxycyclohexylamino)pyrimidine-5-carboxamide] stands less than 200 nM.
As to `CCO[C@H]1CC[C@H](Nc2ncc(C(N)=O)c(N[C@@H]3CCC[C@@H]3O)n2)CC1` [Example A-104, 2-((1r,4R)-4-ethoxycyclohexylamino)-4-((1R,2S)-2-hydroxycyclopentylamino)pyrimidine-5-carboxamide], the IC50 under setting [4] was less than 200 nM.
For the molecule `CN(C)C(=O)[C@H]1CC[C@H](Nc2ncc(C(N)=O)c(NC(C)(C)C3CC3)n2)CC1` [Example 480, 4-(2-cyclopropylpropan-2-ylamino)-2-((1r,4r)-4-(dimethylcarbamoyl)cyclohexylamino)pyrimidine-5-carboxamide], the IC50 under setting [3] was less than 200 nM.
For the molecule `NC(=O)c1cnc(N[C@@H]2CCOc3ccccc32)nc1N[C@@H]1CCC[C@H](O)C1` [Example B-79, 2-((R)-chroman-4-ylamino)-4-((1R,3S)-3-hydroxycyclohexylamino)pyrimidine-5-carboxamide], under setting [2], the IC50 was less than 200 nM.
Take `N#Cc1cnc(N[C@H]2CC[C@H](O)CC2)nc1NC12CC(C1)C2` [Example C-61, 4-(bicyclo[1.1.1]pentan-1-ylamino)-2-((1r,4r)-4-hydroxycyclohexylamino) pyrimidine-5-carbonitrile]: the IC50 under setting [1] fell in the range of 200 to 800 nM.
As to `CC1(C)OCC(CNc2ncc(C(N)=O)c(Nc3ccccc3)n2)O1` (stereo not drawn) [Example B-58, 2-((2,2-dimethyl-1,3-dioxolan-4-yl)methylamino)-4-(phenylamino)pyrimidine-5-carboxamide], the IC50 under setting [2] was 200 to 800 nM.
`CO[C@H]1CC[C@H](Nc2ncc(C#N)c(N[C@@H]3CCCC[C@@](C)(O)C3)n2)CC1` [Example C-53, 4-((1R,3R)-3-hydroxy-3-methylcycloheptylamino)-2-((1r,4R)-4-methoxycyclohexylamino) pyrmidine-5-carbonitrile]: under setting [1], the IC50 was less than 200 nM.
As to `C[C@@H](Nc1nc(N[C@H]2CC[C@H](C(=O)N(C)C)CC2)ncc1C(N)=O)C1CC1` [Example 425, 4-((R)-1-cyclopropylethylamino)-2-((1r,4R)-4-(dimethylcarbamoyl)cyclohexylamino)pyrimidine-5-carboxamide], the IC50 under setting [3] is less than 200 nM.
The same measure, in the same setting: under `NC(=O)c1cnc(N[C@@H]2CCC[C@H](O)C2)nc1NC1CCC1` [Example 433, 4-(cyclobutylamino)-2-((1R,3S)-3-hydroxycyclohexylamino)pyrimidine-5-carboxamide] stands less than 200 nM.
Consider `NC(=O)c1cnc(NC2CCNCC2)nc1Nc1ccccc1` [Example B-9, 4-(phenylamino)-2-(piperidin-4-ylamino)pyrimidine-5-carboxamide], for which the IC50 under setting [2] was in the range of 1000 to 10000 nM.
For `CCNc1ncc(C(N)=O)c(N[C@@H]2CC[C@@H](C)[C@H](O)C2)n1` [Example 494, 2-(ethylamino)-4-((1R,3R,4R)-3-hydroxy-4-methylcyclohexylamino)pyrimidine-5-carboxamide], the IC50 under setting [3] is less than 200 nM.
